Publication PMC9923724, “Half sandwich-type osmium, ruthenium, iridium and rhodium complexes with bidentate glycosyl heterocyclic ligands induce cytostasis in platinum-resistant ovarian cancer cells and bacteriostasis in Gram-positive multiresistant bacteria” (Frontiers in Chemistry, 2023)
Several values for one entry are separate records, joined by “and”; a condition that tells them apart may be missing. Equal entries are not always repeated.

Assays:
Type in all cases: cell-based
[1] = test system: A2780 ovarian cancer cells; assay: MTT reduction assay (rapid toxicity, 4 h) on A2780 cells; conditions: 4 h treatment
Method: First, we assessed a set of osmium complexes (similar to Ia [[Kacsir et al., 2022]) in Figure 1] and their sugar-derived ligands, in which the benzoyl protective groups on the carbohydrate moiety were replaced by aliphatic acyl groups of different chain length (straight chain C3-C7–CO). Osmium was selected as a central ion, since osmium complexes had the best biological activity in our previous studies ([Balázs et al., 2022]; [Kacsir et al., 2022]). These compounds were tested on A2780 ovarian cancer cells for toxicity and cytostasis. The therapy of ovarian cancer is centered around platinum compounds ([Brown et al., 2019]; [Sipos et al., 2021]), therefore, it was logical to use a cellular model of ovarian cancer for the initial testing of the compounds. Toxicity was assessed using the MTT assay that measures the activity of mitochondrial complex I. We chose 4 h long treatment as in an MTT assay this time point is suitable to detect rapid, direct toxicity. Cytostasis was assessed after 48 h of treatment using the SRB assay that assesses protein content that corresponds to cell count. The characteristics of the compounds are detailed in Table 2.
3 × 10^3 A2780 cells, were plated to 96 well plates. Cells were treated with the compounds in the concentrations indicated for either 4 h for an MTT assay or for 48 h for an SRB assay. Data is represented as average ± SD, from three biological replicates; individual assays were performed in duplicates. Values were normalized for vehicle treated cells, absorbance for vehicle treated cells equals to 1. […] Except for the Os-6 complex, Two-way ANOVA test was performed and all values were compared with each other (Tukey’s post hoc test). […] Non-linear regression was performed on the data.
(§1) 3 × 10^3 A2780 cells, 2 × 10^3 ID8 cells and 4 × 10^3 primary fibroblasts were plated to 96 well plates. Cells were treated with the compounds in the concentrations indicated for either 4 h for an MTT assay or for 48 h for an SRB assay. Data is represented as average ± SD, from three biological replicates; individual assays were performed in duplicates. Values were normalized for vehicle treated cells, absorbance for vehicle treated cells equals to 1. Statistical significance was assessed using two-way ANOVA test comparing the free ligand and each complex as a complex-ligand pair. Before the test normality was assessed using the D’Agostino-Pearson test. The ID8 SRB Ir-7+L-7 dataset had lognormal distribution. […] All other datasets had normal distribution. For better visibility the p values are presented in an excel sheet at https://figshare.com/s/2c942a812caea8869a67. Non-linear regression was performed on the A2780 SRB and the ID8 SRB datasets.
(§2) MTT reduction assay measures the activity of mitochondrial complex I and can be used to detect toxicity ([Virág et al., 1998]; [Henslee et al., 2016]). The assay was performed similar to ([Bakondi et al., 2003]). Briefly, cells were plated in 96 well plates the day before the assay. Cells were treated with the compounds for 4 h, then MTT was added in 0.5 mg/ml final concentration and cells were incubated at 37°C in a cell incubator. Culture media was removed and the reduced MTT dye was dissolved in dimethyl-sulfoxide (DMSO) and plates were measured in a plate photometer (Thermo Scientific Multiscan GO spectrophotometer, Waltham, MA, United States) at 540 nm. On each plate wells were designed to contain untreated/vehicle-treated cells. In calculations the readings for these wells was considered as 1 and all readings were expressed relative to these values.

ID8 ovarian cancer cells [2] = assay: MTT reduction assay (4 h) on ID8 cells
Method: as §1
(§3) ID8 cells were cultured in high glucose DMEM (4.5 g/L glucose) medium supplemented with 4% fetal calf serum, 2 mM glutamine, 1% penicillin-streptomycin, 1% ITS supplement (I3146).
as §2

ID8 ovarian cancer cells [3] = assay: SRB assay (48 h) on ID8 cells
Method: as §1, §3
(§4) The assay was performed similar to ([Kovács et al., 2019]). Cells were seeded in 96 well plates the day before the assay. Cells were treated with the compounds for 48 h. Cells were fixed with 10% trichloroacetic acid (TCA). Fixed cells were washed in distilled water 3 times followed by staining with SRB (0.4 m/V% dissolved in 1% acetic acid) for 10 min. Stained cells were washed in 1% acetic acid 5 times; acetic acid was removed and cells were left to dry. Protein-bound SRB was released by adding 100 µl 10 mM Tris base. Plates were measured in a plate photometer (Thermo Scientific Multiscan GO spectrophotometer, Waltham, MA, United States) at 540 nm. On each plate wells were designed to contain vehicle-treated cells. In calculations the readings for these wells was considered as 1 and all readings were expressed relative to these values.
(§5) Statistical analysis was performed using 8.0.1 version of Graphpad Prism. Values were tested for normal distribution using the D’Agostino and Pearson normality test. When necessary, values were log normalized or were normalized using the Box-Cox normalization method ([Box and Cox, 1964]) as indicated in the figure captions. Non-linear regression was performed using the built-in “[Inhibitor] vs. response—Variable slope (four parameters), least square fit” utility of Graphpad that yielded IC50 and Hill slope values.

[4] = test system: Capan2 pancreatic adenocarcinoma cells; assay: SRB assay (48 h) on Capan2 cells
Method: (§6) 3 × 10^3 Capan2 cells, 2 × 10^3 Saos cells and 8 × 10^3 L428 were plated to 96 well plates. Cells were treated with the compounds in the concentrations for 48 h. Then for Capan2 and Saos SRB assay was performed, L428 cells were counted using a Burker chamber. Data is represented as average ± SD, from three biological replicates; individual assays were performed in duplicates. Values were normalized for vehicle treated cells, absorbance for vehicle treated cells equals to 1. Normality was checked using the Shapiro-Wilk test. The Saos Os-7 dataset was normalized using the Box-Cox method, other datasets had normal distribution. Each complex was individually assessed for statistical significance using One-way ANOVA test followed by Dunnett’s post hoc test; all values were compared to the values of the lowest concentration. For better visibility the p values are presented in an excel sheet at https://figshare.com/s/2c942a812caea8869a67. Non-linear regression was performed on the Capan2 and Saos datasets.
Capan2 cells were maintained in MEM, 10% fetal bovine serum, 1% Penicillin/Streptomycin, 2 mM Glutamine.
as §4, §5

Saos osteosarcoma cells = assay: SRB assay (48 h) on Saos cells
Method: as §6
Saos cells were maintained in DMEM (4.5 g/L glucose) medium supplemented with 10% fetal calf serum, 2 mM glutamine, 1% penicillin-streptomycin.
as §4, §5

[5] = test system: primary dermal fibroblasts; assay: MTT reduction assay (4 h) on primary fibroblasts; conditions: primary human dermal fibroblasts
Method: as §1
(§7) Human primary dermal fibroblasts were cultured in low glucose DMEM (1 g/L glucose) medium supplemented with 20% fetal calf serum, 2 mM glutamine, 1% penicillin-streptomycin.
as §2

[6] = test system: primary dermal fibroblasts; assay: SRB assay (48 h) on primary fibroblasts; conditions: primary human dermal fibroblasts
Method: as §1, §7, §4

Compound | A2780 MTT Max. (maximal inhibition) [1] [%] | ID8 MTT Max. (maximal inhibition) (ID8 ovarian cancer cells [2]) | IC50 (ID8 ovarian cancer cells [3]) [nM] | ID8 SRB IC50 (ID8 ovarian cancer cells [3]) | ID8 SRB Max. (maximal inhibition) (ID8 ovarian cancer cells [3]) [%] | Capan2 SRB Max. (maximal inhibition) [4] [%] | IC50 [4] [nM] | IC50 (Saos osteosarcoma cells) [nM] | SAOS SRB Max. (maximal inhibition) (Saos osteosarcoma cells) [%] | Fibroblast MTT Max. (maximal inhibition) [5] [%] | Fibroblast SRB Max. (maximal inhibition) [6] [%]
Cc1c(C)c(C)[c-](C)c1C.F[P-](F)(F)(F)(F)F.O=C(OCC1OC(n2cc(-c3ccc4ccccc4n3)nn2)C(OC(=O)c2ccccc2)C(OC(=O)c2ccccc2)C1OC(=O)c1ccccc1)c1ccccc1.[Cl][Ir+2] (mixture of isomers) [Ir-7] | 23.2 | 19.23% | 799 | submicromolar or low micromolar | >90 | 48.83 | 1930 | 1580 | 33 | 12.81 | 42.83
Cc1ccc(C(C)C)cc1.F[P-](F)(F)(F)(F)F.O=C(OCC1OC(n2cc(-c3ccc4ccccc4n3)nn2)C(OC(=O)c2ccccc2)C(OC(=O)c2ccccc2)C1OC(=O)c1ccccc1)c1ccccc1.[Cl][Os+] (mixture of isomers) [Os-7] | 33.0 | 75% and 74.90% | 359 | submicromolar or low micromolar | >90 | 59.11 | 1350 | 1290 | 48.04 | 30.97 | 48.94
Cc1ccc(C(C)C)cc1.F[P-](F)(F)(F)(F)F.O=C(OCC1OC(n2cc(-c3ccc4ccccc4n3)nn2)C(OC(=O)c2ccccc2)C(OC(=O)c2ccccc2)C1OC(=O)c1ccccc1)c1ccccc1.[Cl][Ru+] (mixture of isomers) [Ru-7] | 23.4 | 32.56% | 1140 | submicromolar or low micromolar | >90 | 39.80 | 1390 | 1180 | 33.64 | 23.93 | 50.04
